Four compounds from patent publication US5708034A, “Substituted sulfonimidamides, processes for their preparation, their use as a medicament or diagnostic, and medicament comprising them” (Hoechst Aktiengesellschaft, priority 1995, dated 1998) can be followed below.

The structures appear in SMILES notation. Counter-ions that a name gives are not always drawn.

T1 sequence (P23791 whole entry): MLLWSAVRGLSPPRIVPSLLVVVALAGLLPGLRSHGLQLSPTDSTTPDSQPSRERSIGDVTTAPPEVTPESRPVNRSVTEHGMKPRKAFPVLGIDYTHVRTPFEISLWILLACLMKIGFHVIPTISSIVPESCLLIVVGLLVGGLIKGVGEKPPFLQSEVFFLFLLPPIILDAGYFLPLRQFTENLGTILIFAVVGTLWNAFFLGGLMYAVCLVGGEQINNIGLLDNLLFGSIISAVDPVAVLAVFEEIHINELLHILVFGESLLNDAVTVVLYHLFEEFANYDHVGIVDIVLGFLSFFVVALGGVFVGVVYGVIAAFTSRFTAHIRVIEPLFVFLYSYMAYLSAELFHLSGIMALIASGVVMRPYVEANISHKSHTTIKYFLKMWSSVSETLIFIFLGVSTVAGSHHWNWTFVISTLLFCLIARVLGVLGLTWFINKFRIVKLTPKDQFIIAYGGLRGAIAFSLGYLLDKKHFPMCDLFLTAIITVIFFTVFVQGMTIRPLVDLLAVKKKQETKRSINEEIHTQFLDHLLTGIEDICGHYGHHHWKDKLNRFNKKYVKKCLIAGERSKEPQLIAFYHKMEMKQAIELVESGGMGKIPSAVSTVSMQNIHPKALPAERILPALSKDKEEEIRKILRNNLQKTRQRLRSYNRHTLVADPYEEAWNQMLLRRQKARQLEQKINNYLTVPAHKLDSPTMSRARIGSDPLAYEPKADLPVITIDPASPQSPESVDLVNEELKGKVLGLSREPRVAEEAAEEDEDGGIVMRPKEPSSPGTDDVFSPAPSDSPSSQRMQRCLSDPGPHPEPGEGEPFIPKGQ

This assay has as its target T1, Na^+ /H^+ exchanger of rabbit erythrocytes (Oryctolagus cuniculus, UniProt P23791).
T1 construct: determine the Na^+ influx into the erythrocytes via Na^+ /H^+ exchange by flame photometry; endogenous in cells; host or cells: erythrocytes from ear-artery blood of cholesterol-fed White New Zealand rabbits (animals from Ivanovas)
The assay is described as follows: Inhibition of the Na^+ /H^+ exchanger of rabbit erythrocytes (amiloride-sensitive Na^+ influx, flame photometry). It is filed as cell-based, rabbit (White New Zealand). The settings on record: hyperosmolar salt-sucrose medium, pH 7.4, 37° C., sodium influx by flame photometry. From the text: Inhibition of the Na^+ /H^+ exchanger of rabbit erythrocytes
White New Zealand rabbits (Ivanovas) received a standard diet with 2% cholesterol for six weeks in order to activate Na^+ /H^+ exchange and thus to be able to determine the Na^+ influx into the erythrocytes via Na^+ /H^+ exchange by flame photometry. The blood was taken from the ear arteries and rendered incoagulable by means of 25 IU of potassium heparin. A part of each sample was used for the duplicate determination of the hematocrit by centrifugation. Aliquots of 100 μl in each case were used to measure the Na^+ starting content of the erythrocytes.
In order to determine the amiloride-sensitive sodium influx, 100 μl of each blood sample were incubated in each case in 5 ml of a hyperosmolar salt-sucrose medium (mmol/l: 140 NaCl, 3 KCl, 150 sucrose, 0.1 ouabain, 20 tris-hydroxymethylaminomethane) at pH 7.4 and 37° C. The erythrocytes were then washed three times with ice-cold MgCl2 ouabain solution (mmol/l: 112 MgCl2, 0.1 ouabain) and hemolyzed in 2.0 ml of distilled water. The intracellular sodium content was determined by flame photometry.
The net Na^+ influx was calculated from the difference between sodium starting values and the sodium content of the erythrocytes after incubation. The amiloride-inhibitable sodium influx resulted from the difference between the sodium content of the erythrocytes after incubation with and without amiloride 3×10^-4 mol/l. This procedure was also used in the case of the compounds according to the invention.
For orientation: IC50 means the point on the concentration scale where inhibition reaches its midpoint. With `CCN=S(=O)(c1ccc(F)cc1)N(CC)c1ccc(C(=O)N=C(N)N)cc1S(C)(=O)=O` (stereo not shown) [Example 1, 4-(4-Fluorobenzene-N,N'-diethylsulfimidamoyl)-3-methyl-sulfonylbenzoylguanidine, dihydrochloride], the IC50 was 0.68 mM.

Consider `CCN=S(=O)(c1ccc(F)cc1)N(CC)c1ccc(C(=O)N=C(N)N)cc1C(F)(F)F` (stereo not shown) [Example 2, 4-(4-Fluorobenzene-N,N'-diethylsulfimidamoyl)-3-trifluoro-methylbenzoylguanidine, dihydrochloride], for which the IC50 is 0.053 mM.

As to `CS(=O)(=O)c1cc(C(=O)N=C(N)N)ccc1NS(=N)(=O)c1ccc(F)cc1` (stereo not shown) [Example 3, 3-Methylsulfonyl-4-(4-fluorobenzenesulfimidamoyl)benzoylguanidine], the IC50 stood at 2 mM.

`CN=S(=O)(NC)c1cc(C(=O)N=C(N)N)ccc1C(C)C` (stereo not shown) [Example 4, 2-isopropyl-5-guanidinocarbonylbenzenesulfonic acid N,N'-dimethylimidamide]: the IC50 was found to be 6 mM.
